{"source": "paper PMC6145916", "about": "“Interaction of mitochondrial fission factor with dynamin related protein 1 governs physiological mitochondrial function in vivo” (Scientific Reports, 2018)", "molecules": {"B1": {"name": "P259 (peptide, UniProt O00429 22-31, looked up)", "peptide": "IIQLPEIVVV", "notes": "dynamin related protein 1 (Drp1), residues 22-31, with glutamine 27 replaced by glutamate as found in Mff; The text introduces the TAT carrier only for the cell experiments; whether the in vitro peptide carried it may be told in the Supplementary Methods; also called peptide P259"}}, "key": {"SH-SY5Y cells": {"test_system": "SH-SY5Y cells", "experiment": "Mitochondrial ROS (MitoSox Red) in GFP positive SH-SY5Y cells expressing P259 or alanine-substituted P259", "assay_type": "cell-based, human", "conditions": "P259 sequence alone (no TAT carrier) expressed from vector, two days, relative to empty GFP vector; n = 3, with 3 replicates", "experimental": "(§1) Represented Western blot is cropped from a full blot shown in the Expanded Western Blots section of the Supplementary Information. […] Hoechst 33342 is shown in blue and Tom20 in green (n = 3, 10 images each). Below, quantification of the form factor (degree of branching) and major axis length (length of mitochondria). At least 6,000 mitochondrial fragments were measured for each condition. Mitochondrial reactive oxygen species (ROS) production (MitoSox Red) (c) and mitochondrial membrane potential (TMRM) (d) after overnight treatment with indicated concentrations of peptide or FCCP. Data are from 3 independent experiments per condition normalized to the average no peptide value. (e) Relative mitochondrial ROS (MitoSox Red) signal in GFP positive cells expressing full-length or alanine-substituted P259 at indicated amino acids after two days of transfection. Values are normalized to a GFP empty vector (n = 3, with 3 replicates). […] Data are mean ± s.e.\nUsing mitochondrial ROS as a phenotypic output, we determined which residues of P259 were necessary for its function.\nDMI6000B inverted microscope. All mitochondria were imaged with a GFP fi lter. Then, green […]\nfilter every 30 seconds for 5 minutes. […]\nGFP filter (Keyence). […] The GFP and MitoSox signals were measured in a ring around each nucleus. Average MitoSox levels were quantified in […]"}, "[1]": {"test_system": "neuroblastoma SH-SY5Y cells", "experiment": "Mitochondrial morphology (Tom20 immunofluorescence), SH-SY5Y", "assay_type": "cell-based, human", "conditions": "4 µM TAT-P259 or 10 µM Mdivi-1, 30-minute treatment; n = 3, 10 images each", "experimental": "as §1, with “s.e. […]” for “s.e.”\nCells were fixed onto Permanox plastic slides with 4% paraformaldehyde in PBS for 10 minutes at room temperature. Cells were permeabilized in 0.1% Triton X-100 and 1% normal goat serum (blocking buffer) for one hour at room temperature. Permeabilized cells were incubated overnight with primary anti-Tom20 antibody (Santa Cruze Biotech, sc-11415, 1:250 dilution) in a humidified chamber. Slides were subsequently incubated with FITC-conjugated goat anti-rabbit IgG for two hours at room temperature in a light-shielding humidified chamber. Cells were washed with blocking buffer and stained with Hoechst 33342 (Invitrogen, OR, USA, […]). Coverslips were mounted with a Slowfade antifade solution (Invitrogen, OR, USA). Images were acquired using an LSM 700 confocal laser-s canning microsc ope equipped with a Plan Apochromat 63x/1.4 NA oil-immersion objective (Zeiss).\nMitochondrial morphology analysis\nHigh-throughput image analysis of mitochondrial morphology was performed using MATLAB with the Image Processing toolkit. Background illumination, obtained by morphological opening of the image, was subtracted from the original image. The image was then passed through a top - hat transformation to highlight objects from the background followed by a pixel-wis e adaptive low-pas s Wiener filter to remove noise. A 90th percentile threshold was used to convert the image to a binary image. Erroneously large and small objects were removed from the image and morphological features were extracted from the binary objects. Major axis length is defined as th e length of the longest line that can be drawn through a binary object while the minor axis length is defined as the length of the shortest line. The aspect ratio is defined by the major axis length divided by the minor axis length. […]"}, "Drp1": {"test_system": "Drp1", "conditions": "cited from earlier work", "excerpt": "However, Mdivi-1 cannot distinguish between Drp1′s physiological and pathological activities. […] Strikingly, while inhibiting the interaction between Drp1 and Fis1 slo ..."}, "[2]": {"molecular_target": "T1, recombinant human Drp1 (dynamin related protein 1) (human, UniProt O00429 1-736)", "T1 construct": "dynamin related protein 1 (Drp1), human, recombinant; details may stand in the Supplementary Methods; also called recombinant Drp1", "T1 sequence (O00429 whole entry)": "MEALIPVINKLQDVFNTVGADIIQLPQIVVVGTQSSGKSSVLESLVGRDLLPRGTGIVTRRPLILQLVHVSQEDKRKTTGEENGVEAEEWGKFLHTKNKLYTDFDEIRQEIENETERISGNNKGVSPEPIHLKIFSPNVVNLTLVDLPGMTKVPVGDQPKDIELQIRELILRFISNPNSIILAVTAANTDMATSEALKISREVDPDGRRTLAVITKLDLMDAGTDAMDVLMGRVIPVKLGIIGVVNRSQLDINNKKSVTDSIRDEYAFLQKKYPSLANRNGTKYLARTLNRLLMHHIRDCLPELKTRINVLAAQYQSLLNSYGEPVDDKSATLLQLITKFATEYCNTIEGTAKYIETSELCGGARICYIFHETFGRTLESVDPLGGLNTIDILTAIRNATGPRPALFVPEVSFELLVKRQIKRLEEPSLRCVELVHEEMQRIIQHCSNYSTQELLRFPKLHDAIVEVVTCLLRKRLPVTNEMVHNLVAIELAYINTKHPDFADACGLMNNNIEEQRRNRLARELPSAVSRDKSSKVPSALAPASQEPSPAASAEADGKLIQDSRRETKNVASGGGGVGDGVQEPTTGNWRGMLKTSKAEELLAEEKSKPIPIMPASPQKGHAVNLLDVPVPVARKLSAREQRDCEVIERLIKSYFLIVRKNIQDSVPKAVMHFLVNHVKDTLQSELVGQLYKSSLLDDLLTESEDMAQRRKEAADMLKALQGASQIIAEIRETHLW", "experiment": "graphene surface with transistors measuring electrical conductance", "conditions": "both partners purified"}}, "data": [{"molecule": "IIQLPEIVVV [P259 peptide]", "values": [{"measurement": "mitochondrial ROS levels (MitoSox) in GFP-positive cells", "setting": "SH-SY5Y cells", "result": "doubled mitochondrial ROS levels"}]}, {"molecule": "COc1cc(-n2c(=S)[nH]c3ccccc3c2=O)c(Cl)cc1Cl", "note": "[Mdivi-1, reference compound]", "values": [{"measurement": "mitochondrial morphology", "setting": "[1]", "result": "These effects were similar to treatment with Mdivi-1"}, {"measurement": "GTPase activity of Drp1", "setting": "Drp1", "result": "inhibitor of the GTPase activity of Drp1"}]}, {"molecule": "B1", "values": [{"measurement": "Kd", "setting": "[2]", "result": 12, "unit": "nM"}]}]}
